# Data taken from patent publication US11363819B2 (priority 2017, dated 2022).
# Like-named read-outs stand apart in the source and are kept apart here.
# Legend:
# soybean [1] = conditions: Magnesium chlorate 1600, Aciflurofen 96, combination 1600 + 96 gla/Ha
# soybean [2] = conditions: Magnesium chlorate 1600, Aciflurofen 96, combination 1600 + 96 gla/Ha; remark: listed apart in the source
# Procedure: Field trials were carried out to test the synergy of the combination magnesium chlorate and glufosinate-ammonium which is a protoporphyrinogen oxidase-inhibiting herbicides for desiccation in Soybean. The field trials were carried out at various locations in Brazil during spring. The percentage efficacy was calculated after 1, 4 and 7 days of applications.
# Triticum aesti = type: in vivo, wheat; conditions: Magnesium chlorate 3000, Glufosinate ammonium 1500, combination 3000 + 1500 mL/Ha
# Procedure: (§1) The expected efficacy of a combination of magnesium chlorate and co-herbicide was calculated using the well-established Colby method.
# In the Colby method, the expected (or predicted) response of a combination of herbicides is calculated by taking the product of the observed response for each individual component of the combination when applied alone divided by 100 and subtracting this value from the sum of the observed response for each component when applied alone. An unexpected enhancement in efficacy of the combination is then determined by comparing the observed response of the combination to the expected (or predicted) response as calculated from the observed response of each individual component alone. If the observed response of the combination is greater than the expected (or predicted) response, or stated conversely, if the difference between the observed and expected response is greater than zero, then the combination is said to be synergistic or unexpectedly effective. […]
# (§2) The present inventors have adopted the Coby method to calculate synergy of the combination of defoliants. The % defoliation of individual defoliants was calculated and compared to the expected and observed defoliation efficacy.
# The defoliation activity of the individual defoliants of the invention and their combinations were evaluated on multiple crops including wheat, soybean and cotton. […]
# Conyza Canadenesis = type: in vivo
# Procedure: as §1
# (§3) In the Colby method, the expected (or predicted) response of a combination of herbicides is calculated by taking the product of the observed response for each individual component of the combination when applied alone divided by 100 and subtracting this value from the sum of the observed response for each component when applied alone. An unexpected enhancement in efficacy of the combination is then determined by comparing the observed response of the combination to the expected (or predicted) response as calculated from the observed response of each individual component alone. If the observed response of the combination is greater than the expected (or predicted) response, or stated conversely, if the difference between the observed and expected response is greater than zero, then the combination is said to be synergistic or unexpectedly effective. (Colby, S. R., Weeds, 1967 (15), p. 20-22) The Colby method requires only a single dose of each herbicide applied alone and the mixture of both doses.
# (§4) The defoliation activity of the individual defoliants of the invention and their combinations were evaluated on multiple crops including wheat, soybean and cotton. The trial was carried out in Randomized Complete Block (RCB) method, all field trials were conducted using this method. Each trial were replicated four times and conducted under GEP guidelines. Application volumes were varied for each mixture. Such field trials were carried out at various locations so as to generate independent data, the locations were chosen randomly across Brazil.
# Field trials were carried out to test the synergy of the combination magnesium chlorate and glufosinate-ammonium which is a […] herbicides for controlling Conyza Canadenesis. The field trials were carried out at various locations in Brazil. The percentage efficacy was calculated after 3, 14 and 28 days of applications.
# soybean [3] = type: in vivo; conditions: Magnesium chlorate 1600, Glufosinate ammonium 240, combination 1600 + 240 mL/Ha
# Procedure: as §1, §3, §2, §4
# Field trials were carried out to test the synergy of the combination magnesium chlorate and glufosinate-ammonium which is a ESPS inhibitor herbicide for desiccation in Soybean. The field trials were carried out at various locations in Brazil during spring. The percentage efficacy was calculated after 1 and 4 days of applications. The target crop for defoliation was soybean and the results are recorded in the table below: […]
# soybean [4] = type: in vivo; conditions: Magnesium chlorate 2000, Glufosinate ammonium 300, combination 2000 + 300 gla/Ha
# Procedure: as §1, §3, §2, §4
# Field trials were carried out to test the synergy of the combination magnesium chlorate and glufosinate-ammonium which is a ESPS inhibitor herbicide for desiccation in Soybean. The field trials were carried out at various locations in Brazil during spring. The percentage efficacy was calculated after 1, 4 and 7 days of applications. The target crop for defoliation was soybean and the results are recorded in the table below: […]
# [5] = Magnesium chlorate 1200, Aciflurofen 72, combination 1200 + 72 gla/Ha
# [6] = Magnesium chlorate 1600, Aciflurofen 96, combination 1600 + 96 gla/Ha
# [7] = Magnesium chlorate 2000, Aciflurofen 120, combination 2000 + 120 gla/Ha
# [8] = Magnesium chlorate 1200, Glufosinate 180, combination 1200 + 180 gla/Ha
# [9] = Magnesium chlorate 1600, Glufosinate 240, combination 1600 + 240 gla/Ha
# [10] = Magnesium chlorate 2000, Glufosinate 300, WG formulation 1600 + 300 gla/Ha
# Procedure for Cenchrus echinatus: Field trials were carried out to test the synergy of the combination magnesium chlorate and acifluorfen for controlling Cenchrus echinatus. The field trials were carried out at various locations in Brazil. The percentage efficacy was calculated after 3, 14 and 21 days of applications.
# Procedure for Digitaria insularis: Field trials were carried out to test the synergy of the combination magnesium chlorate and acifluorfen for controlling Digitaria insularis. The field trials were carried out at various locations in Brazil. The percentage efficacy was calculated after 3, 14 and 28 days of applications.
# Procedure for Euphorbia heterophylla: Field trials were carried out to test the synergy of the combination magnesium chlorate and acifluorfen for controlling Euphorbia heterophylla. The field trials were carried out at various locations in Brazil. The percentage efficacy was calculated after 3, 14 and 28 days of applications.
smiles,measurement,setting,value
"O=C(O)c1cc(Oc2ccc(C(F)(F)F)cc2Cl)ccc1[N+](=O)[O-] [Aciflurofen, acifluorfen]",% control at 3 DAA Actual,Digitaria insularis; [5],7.7%
same,% control at 3 DAA Actual,Digitaria insularis; [6],28.3%
same,% control at 3 DAA Actual,Digitaria insularis; [7],31.7%
same,% control at 14 DAA Actual,Digitaria insularis; [5],38.3%
same,% control at 14 DAA Actual,Digitaria insularis; [6],78.3%
same,% control at 14 DAA Actual,Digitaria insularis; [7],87%
same,% control at 28 DAA Actual,Digitaria insularis; [5],81.7%
same,% control at 28 DAA Actual,Digitaria insularis; [6],98.7%
same,% control at 28 DAA Actual,Digitaria insularis; [7],95.3%
same,% control at 3 DAA Actual,Cenchrus echinatus; [5],13%
same,% control at 3 DAA Actual,Cenchrus echinatus; [6],17.7%
same,% control at 3 DAA Actual,Cenchrus echinatus; [7],18.3%
same,% control at 14 DAA Actual,Cenchrus echinatus; [5],30%
same,% control at 14 DAA Actual,Cenchrus echinatus; [6],50%
same,% control at 14 DAA Actual,Cenchrus echinatus; [7],50%
same,% control at 21 DAA Actual,Cenchrus echinatus; [5],50%
same,% control at 21 DAA Actual,Cenchrus echinatus; [6],74.3%
same,% control at 21 DAA Actual,Cenchrus echinatus; [7],61.7%
same,% control at 3 DAA Actual,Euphorbia heterophylla; [5],45%
same,% control at 3 DAA Actual,Euphorbia heterophylla; [6],56.7%
same,% control at 3 DAA Actual,Euphorbia heterophylla; [7],63.3%
same,% control at 14 DAA Actual,Euphorbia heterophylla; [5],28.3%
same,% control at 14 DAA Actual,Euphorbia heterophylla; [6],35.0%
same,% control at 14 DAA Actual,Euphorbia heterophylla; [7],50%
same,% control at 28 DAA Actual,Euphorbia heterophylla; [5],13.3%
same,% control at 28 DAA Actual,Euphorbia heterophylla; [6],31.7%
same,% control at 28 DAA Actual,Euphorbia heterophylla; [7],33.3%
same,desiccation in soybean at 3 DAA Actual,soybean [1],91.0%
same,desiccation in soybean at 14 DAA Actual,soybean [1],10%
same,desiccation in soybean at 1 DAA Actual,soybean [2],0%
same,desiccation in soybean at 4 DAA Actual,soybean [2],11.7%
"CP(=O)(O)CCC(N)C(=O)O (centres unmarked) [Glufosinate ammonium, glufosinate-ammonium]",Defoliation in Triticum aesti at 3 DAA Actual,Triticum aesti,78%
same,% control at 3 DAA Actual,Conyza Canadenesis; [8],13.3%
same,% control at 3 DAA Actual,Conyza Canadenesis; [9],13.3%
same,% control at 3 DAA Actual,Conyza Canadenesis; [10],63.3%
same,% control at 14 DAA Actual,Conyza Canadenesis; [8],61.7%
same,% control at 14 DAA Actual,Conyza Canadenesis; [9],90.7%
same,% control at 14 DAA Actual,Conyza Canadenesis; [10],50%
same,% control at 28 DAA Actual,Conyza Canadenesis; [8],58.3%
same,% control at 28 DAA Actual,Conyza Canadenesis; [9],95%
same,% control at 28 DAA Actual,Conyza Canadenesis; [10],33.3%
same,desiccation in soybean at 1 DAA Actual,soybean [3],0%
same,desiccation in soybean at 4 DAA Actual,soybean [3],18.3%
same,desiccation in soybean at 1 DAA Actual,soybean [4],0%
same,desiccation in soybean at 4 DAA Actual,soybean [4],30%
same,desiccation in soybean at 7 DAA Actual,soybean [4],63.3%
[Mg+2].[O-][Cl+2]([O-])[O-].[O-][Cl+2]([O-])[O-] [Magnesium chlorate],Defoliation in Triticum aesti at 3 DAA Actual,Triticum aesti,68%
same,% control at 3 DAA Actual,Digitaria insularis; [5],6%
same,% control at 3 DAA Actual,Digitaria insularis; [6],6%
same,% control at 3 DAA Actual,Digitaria insularis; [7],7%
same,% control at 14 DAA Actual,Digitaria insularis; [5],9.3%
same,% control at 14 DAA Actual,Digitaria insularis; [6],11.7%
same,% control at 14 DAA Actual,Digitaria insularis; [7],16%
same,% control at 28 DAA Actual,Digitaria insularis; [5],41.7%
same,% control at 28 DAA Actual,Digitaria insularis; [6],48.3%
same,% control at 28 DAA Actual,Digitaria insularis; [7],31.7%
same,% control at 3 DAA Actual,Conyza Canadenesis; [8],50%
same,% control at 3 DAA Actual,Conyza Canadenesis; [9],55%
same,% control at 3 DAA Actual,Conyza Canadenesis; [10],40%
same,% control at 14 DAA Actual,Conyza Canadenesis; [8],51.7%
same,% control at 14 DAA Actual,Conyza Canadenesis; [9],47.7%
same,% control at 14 DAA Actual,Conyza Canadenesis; [10],33.3%
same,% control at 28 DAA Actual,Conyza Canadenesis; [8],30%
same,% control at 28 DAA Actual,Conyza Canadenesis; [9],35%
same,% control at 28 DAA Actual,Conyza Canadenesis; [10],11.7%
same,% control at 3 DAA Actual,Cenchrus echinatus; [5],10.7%
same,% control at 3 DAA Actual,Cenchrus echinatus; [6],11.3%
same,% control at 3 DAA Actual,Cenchrus echinatus; [7],14%
same,% control at 14 DAA Actual,Cenchrus echinatus; [5],14.3%
same,% control at 14 DAA Actual,Cenchrus echinatus; [6],23.3%
same,% control at 14 DAA Actual,Cenchrus echinatus; [7],30%
same,% control at 21 DAA Actual,Cenchrus echinatus; [5],10.7%
same,% control at 21 DAA Actual,Cenchrus echinatus; [6],12.3%
same,% control at 21 DAA Actual,Cenchrus echinatus; [7],22.7%
same,desiccation in soybean at 1 DAA Actual,soybean [3],21.7%
same,desiccation in soybean at 4 DAA Actual,soybean [3],53.3%
same,% control at 3 DAA Actual,Euphorbia heterophylla; [5],31.7%
same,% control at 3 DAA Actual,Euphorbia heterophylla; [6],33.3%
same,% control at 3 DAA Actual,Euphorbia heterophylla; [7],40%
same,% control at 14 DAA Actual,Euphorbia heterophylla; [5],40%
same,% control at 14 DAA Actual,Euphorbia heterophylla; [6],35%
same,% control at 14 DAA Actual,Euphorbia heterophylla; [7],33.3%
same,% control at 28 DAA Actual,Euphorbia heterophylla; [5],23.3%
same,% control at 28 DAA Actual,Euphorbia heterophylla; [6],16.7%
same,% control at 28 DAA Actual,Euphorbia heterophylla; [7],11.7%
same,desiccation in soybean at 3 DAA Actual,soybean [1],84.3%
same,desiccation in soybean at 14 DAA Actual,soybean [1],60%
same,desiccation in soybean at 1 DAA Actual,soybean [2],21.7%
same,desiccation in soybean at 4 DAA Actual,soybean [2],53.3%
same,desiccation in soybean at 1 DAA Actual,soybean [4],30%
same,desiccation in soybean at 4 DAA Actual,soybean [4],56.7%
same,desiccation in soybean at 7 DAA Actual,soybean [4],58.3%
